Four molecules from ChEMBL document CHEMBL1201862, “PubChem BioAssay data set” (2004) can be followed below.

Some test systems named below: IGROV-1; U-251; COLO 205; SK-MEL-28; A549; NCI-H522; OVCAR-5; T47D; OVCAR-8; SK-MEL-2; LOX IMVI; HT-29; MDA-N; NCI/ADR-RES; SW-620; UACC-62; HL-60; HOP-62; KM12; HCT-116.
What all share (test): NCI anticancer screen, dose series, 48 h

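Cultured in 96-well plates, cells were exposed to test compound for 48 hours across five concentrations. Abbreviation: GI50, concentration required for 50% inhibition of growth.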 The source made the active and inactive calls. Rule as the data show it: active = GI50 up to about 1.1 µM and inactive = higher. Bounds are passed on as bounds.

`c1cc(CSc2ncnc3[nH]cnc23)ccn1`: the GI50 in the assay with IGROV-1 was > 100 µM (inactive); with U-251 it was > 100 µM (inactive); in the assay with COLO 205, > 100 µM (inactive); in the assay on SK-MEL-28, > 100 µM (inactive); with A549, > 100 µM (inactive); in the assay on NCI-H522, 42.2 µM (inactive). Also, the GI50 in the assay on OVCAR-5 was > 100 µM (inactive); in the assay on T47D it was 76.6 µM (inactive); with OVCAR-8 it was 94 µM (inactive); with SK-MEL-2, 80.5 µM (inactive); in the assay with LOX IMVI it was 28.2 µM (inactive); with HT-29, 48.3 µM (inactive). Also, the GI50 with MDA-N is 42.9 µM (inactive); in the assay on NCI/ADR-RES, > 100 µM (inactive); with SW-620 it was > 100 µM (inactive); in the assay on UACC-62, 37.4 µM (inactive); in the assay on HL-60, 67.9 µM (inactive); in the assay with HOP-62, 91.8 µM (inactive). For the same molecule, the GI50 in the assay with KM12 was > 100 µM (inactive); in the assay with HCT-116 it was 77.8 µM (inactive).

With `COc1ccc(C[C@H]2NC[C@H](O)[C@H]2OC(C)=O)cc1` [ANISOMYCIN], the GI50 with IGROV-1 is 0.0234 µM (active); in the assay with U-251 it was 0.0309 µM (active); with COLO 205, < 0.0121 µM (active); in the assay on SK-MEL-28 it was 0.0239 µM (active); in the assay on A549, 0.0232 µM (active); in the assay on NCI-H522, < 0.0198 µM (active). Further, the GI50 in the assay on OVCAR-5 was 0.0478 µM (active); in the assay on T47D, 0.0303 µM (active); with OVCAR-8, < 0.0168 µM (active); with SK-MEL-2, 0.0287 µM (active); in the assay with LOX IMVI, 0.0131 µM (active); in the assay on HT-29, < 0.0149 µM (active). In addition, the GI50 with MDA-N is 0.0313 µM (active); with NCI/ADR-RES, 0.0282 µM (active); with SW-620 it was 0.0164 µM (active); in the assay with UACC-62, 0.0362 µM (active); with HL-60 it was 0.0104 µM (active); in the assay with HOP-62 it was < 0.021 µM (active). Besides, the results for the GI50 in the assay on KM12 and in the assay on HCT-116 were 0.0224 µM (active) and < 0.015 µM (active), respectively.

As to `O=C(n1[nH]c(=O)n(-c2ccc([N+](=O)[O-])cc2)c1=O)C(Cl)(Cl)Cl`, the GI50 with IGROV-1, in the assay with U-251, in the assay with COLO 205, in the assay with SK-MEL-28, in the assay with A549 and in the assay on NCI-H522 was > 75 µM (inactive) in each case. Also, the GI50 in the assay with OVCAR-5, in the assay with T47D, with OVCAR-8, in the assay on SK-MEL-2, with LOX IMVI and with HT-29 was > 75 µM (inactive) throughout. In addition, the GI50 in the assay on MDA-N, with NCI/ADR-RES, in the assay on SW-620, with UACC-62, with HL-60 and in the assay with HOP-62 was > 75 µM (inactive) in each case. In addition, the GI50 in the assay on KM12 and in the assay on HCT-116 was > 75 µM (inactive) in each case.

In the case of `Nc1nc(Cl)c(N)c(NCC2(CO)CC(OCc3ccccc3)C2)n1` (stereo not given), the GI50 with IGROV-1, in the assay on U-251, with COLO 205, in the assay on SK-MEL-28, in the assay on A549 and in the assay with NCI-H522 was > 100 µM (inactive) throughout. Further, the GI50 in the assay with OVCAR-5 was > 100 µM (inactive); in the assay on T47D it was 23.7 µM (inactive); in the assay on OVCAR-8, > 100 µM (inactive); in the assay with SK-MEL-2, > 100 µM (inactive); in the assay with LOX IMVI, 9.35 µM (inactive); in the assay on HT-29, > 100 µM (inactive). Moreover, the GI50 is > 100 µM (inactive) in the assay on MDA-N; 48 µM (inactive) with NCI/ADR-RES; > 100 µM (inactive) in the assay with SW-620; > 100 µM (inactive) in the assay on UACC-62; > 100 µM (inactive) in the assay with HL-60; > 100 µM (inactive) in the assay with HOP-62. Further, the GI50 was > 100 µM (inactive) in the assay on KM12 and 44.8 µM (inactive) in the assay on HCT-116.
